Tests used:
bedstraw = assay: Test B pre/postemergence bedstraw; assay type: in vivo, Galium aparine; conditions: Postemergence, Rate 125 g/ha; scale of 0 to 10 where 0 is no effect and 10 is complete control
Procedure, shortened: (§1)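 Herbicidal effect was estimated by eye on a ten-point control scale after plants spent twelve to sixteen days in a greenhouse following soil or foliar treatment. Foliar sprays targeted plants at one to four leaves; all doses were formulated in a non-phytotoxic solvent with surfactant.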

blackgrass = assay: Test B pre/postemergence blackgrass; assay type: in vivo, Alopecurus myosuroides
Procedure, shortened: as §1

surinam grass = assay: Test B pre/postemergence surinam grass; assay type: in vivo, Brachiaria decumbens
Procedure, shortened: as §1

cocklebur = assay: Test B pre/postemergence cocklebur; assay type: in vivo, Xanthium strumarium
Procedure, shortened: as §1

corn = assay: Test B pre/postemergence corn; assay type: in vivo, Zea mays
Procedure, shortened: as §1

giant foxtail = assay: Test B pre/postemergence giant foxtail; assay type: in vivo, Setaria faberii
Procedure, shortened: as §1

morningglory = assay: Test B pre/postemergence morningglory; assay type: in vivo, Ipomoea hederacea
Procedure, shortened: as §1

pigweed = assay: Test B pre/postemergence pigweed; assay type: in vivo, Amaranthus retroflexus
Procedure, shortened: as §1

rape = assay: Test B pre/postemergence rape; assay type: in vivo, Brassica napus
Procedure, shortened: as §1

soybean = assay: Test B pre/postemergence soybean; assay type: in vivo, Glycine max
Procedure, shortened: as §1

sugar beet = assay: Test B pre/postemergence sugar beet; assay type: in vivo, Beta vulgaris
Procedure, shortened: as §1

velvetleaf = assay: Test B pre/postemergence velvetleaf; assay type: in vivo, Abutilon theophrasti
Procedure, shortened: as §1

purple nutsedge = assay: Test B pre/postemergence purple nutsedge; assay type: in vivo, Cyperus rotundus
Procedure, shortened: as §1

smallflower flatsedge = assay: Test B flood test smallflower flatsedge; assay type: in vivo, Cyperus difformis
Procedure, shortened: (§2)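 Each value is a visual injury score relative to controls, with 10 meaning complete control and 0 no effect. Evaluation took place twelve to sixteen days after the 2-leaf-stage plants were treated and kept in the greenhouse.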

duck salad = assay: Test B flood test duck salad; assay type: in vivo, Heteranthera limosa
Procedure, shortened: as §2

bamyardgrass = assay: Test B flood test barnyardgrass; assay type: in vivo, Echinochloa crus-galli
Procedure, shortened: as §2

[1] = Postemergence, Rate 62 g/ha, scale 0 to 10, 0 is no effect, 10 is complete control
[2] = Postemergence, Rate 125 g/ha, scale of 0 to 10 where 0 is no effect and 10 is complete control
[3] = Postemergence, Rate 250 g/ha, scale of 0 to 10, 0 is no effect, 10 is complete control
[4] = Preemergence, Rate 62 g/ha, scale of 0 to 10 where 0 is no effect and 10 is complete control
[5] = Preemergence, Rate 125 g/ha, scale of 0 to 10 where 0 is no effect and 10 is complete control
[6] = Preemergence, Rate 250 g/ha, scale 0 to 10 (0 no effect, 10 complete control)
[7] = Preemergence, Rate 500 g/ha, scale of 0 to 10 where 0 is no effect and 10 is complete control
[8] = Rate 500 g/ha, Postemergence, scale 0 to 10, 0 is no effect, 10 is complete control
[9] = Rate 62 g/ha, flood test species, Pre-emergence, visual evaluation after twelve to sixteen days
[10] = Rate 125 g/ha, under heading Pre-emergence, flood test species, visual evaluation after twelve to sixteen days
[11] = Rate 250 g/ha, Pre-emergence (flood test species), scale 0 to 10, 0 is no effect, 10 is complete control
[12] = Rate 500 g/ha, Pre-emergence section of Table B, 0 to 10 scale (0 no effect, 10 complete control)

CC[C@H](C)n1c(=O)on(C(=O)N(c2ccc(F)cc2F)C(C)C)c1=O [Compound 666]
Bedstraw plant response rating (bedstraw): 0 | Plant response rating, Blackgrass (blackgrass; [1]): 6 | Blackgrass plant response rating (blackgrass; [2]): 8 | Blackgrass plant response rating (blackgrass; [3]): 8 | Blackgrass plant response rating (blackgrass; [4]): 6 | Blackgrass plant response rating (blackgrass; [5]): 8 | Plant response rating, Blackgrass (blackgrass; [6]): 9 | Plant response rating, Blackgrass (blackgrass; [7]): 10 | Blackgrass plant response rating (blackgrass; [8]): 8 | Plant response rating, B. signalgrass (surinam grass; [1]): 0 | Plant response rating, B. signalgrass (surinam grass; [2]): 4 | B. signalgrass plant response rating (surinam grass; [3]): 5 | B. signalgrass plant response rating (surinam grass; [4]): 2 | B. signalgrass plant response rating (surinam grass; [5]): 3 | Plant response rating, B. signalgrass (surinam grass; [6]): 7 | Plant response rating, B. signalgrass (surinam grass; [7]): 8 | B. signalgrass plant response rating (surinam grass; [8]): 7 | Plant response rating, Cocklebur (cocklebur; [1]): 0 | Cocklebur plant response rating (cocklebur; [2]): 1 | Cocklebur plant response rating (cocklebur; [3]): 4 | Cocklebur plant response rating (cocklebur; [4]): 0 | Cocklebur plant response rating (cocklebur; [5]): 0 | Plant response rating, Cocklebur (cocklebur; [6]): 0 | Plant response rating, Cocklebur (cocklebur; [7]): 0 | Cocklebur plant response rating (cocklebur; [8]): 7 | Plant response rating, Corn (corn; [1]): 0 | Corn plant response rating (corn; [2]): 0 | Corn plant response rating (corn; [3]): 0 | Corn plant response rating (corn; [4]): 0 | Corn plant response rating (corn; [5]): 4 | Plant response rating, Corn (corn; [6]): 8 | Plant response rating, Corn (corn; [7]): 10 | Corn plant response rating (corn; [8]): 0 | Plant response rating, Giant foxtail (giant foxtail; [1]): 2 | Giant foxtail plant response rating (giant foxtail; [2]): 8 | Giant foxtail plant response rating (giant foxtail; [3]): 8 | Giant foxtail plant response rating (giant foxtail; [4]): 9 | Giant foxtail plant response rating (giant foxtail; [5]): 10 | Plant response rating, Giant foxtail (giant foxtail; [6]): 10 | Plant response rating, Giant foxtail (giant foxtail; [7]): 10 | Giant foxtail plant response rating (giant foxtail; [8]): 9 | Plant response rating, Morningglory (morningglory; [1]): 0 | Morningglory plant response rating (morningglory; [2]): 1 | Morningglory plant response rating (morningglory; [3]): 7 | Morningglory plant response rating (morningglory; [4]): 0 | Morningglory plant response rating (morningglory; [5]): 0 | Plant response rating, Morningglory (morningglory; [6]): 0 | Plant response rating, Morningglory (morningglory; [7]): 3 | Morningglory plant response rating (morningglory; [8]): 7 | Plant response rating, Redroot pigweed (pigweed; [1]): 0 | Redroot pigweed plant response rating (pigweed; [2]): 1 | Redroot pigweed plant response rating (pigweed; [4]): 8 | Redroot pigweed plant response rating (pigweed; [5]): 10 | Plant response rating, Redroot pigweed (pigweed; [6]): 10 | Plant response rating, Redroot pigweed (pigweed; [7]): 10 | Redroot pigweed plant response rating (pigweed; [8]): 6 | Plant response rating, Rape (rape; [1]): 0 | Rape plant response rating (rape; [2]): 0 | Rape plant response rating (rape; [4]): 0 | Rape plant response rating (rape; [5]): 8 | Plant response rating, Rape (rape; [6]): 10 | Plant response rating, Rape (rape; [7]): 10 | Rape plant response rating (rape; [8]): 4 | Plant response rating, Soybean (soybean; [1]): 4 | Soybean plant response rating (soybean; [2]): 4 | Soybean plant response rating (soybean; [4]): 0 | Soybean plant response rating (soybean; [5]): 0 | Plant response rating, Soybean (soybean; [6]): 3 | Plant response rating, Soybean (soybean; [7]): 4 | Plant response rating, Sugarbeets (sugar beet; [1]): 0 | Sugarbeets plant response rating (sugar beet; [2]): 0 | Sugarbeets plant response rating (sugar beet; [4]): 0 | Sugarbeets plant response rating (sugar beet; [5]): 4 | Plant response rating, Sugarbeets (sugar beet; [6]): 7 | Plant response rating, Sugarbeets (sugar beet; [7]): 8 | Sugarbeets plant response rating (sugar beet; [8]): 4 | Plant response rating, Velvetleaf (velvetleaf; [1]): 0 | Velvetleaf plant response rating (velvetleaf; [2]): 2 | Velvetleaf plant response rating (velvetleaf; [4]): 5 | Velvetleaf plant response rating (velvetleaf; [5]): 6 | Plant response rating, Velvetleaf (velvetleaf; [6]): 7 | Plant response rating, Velvetleaf (velvetleaf; [7]): 8 | Velvetleaf plant response rating (velvetleaf; [8]): 6 | Plant response rating, Nutsedge (purple nutsedge; [1]): 0 | Nutsedge plant response rating (purple nutsedge; [2]): 0 | Nutsedge plant response rating (purple nutsedge; [4]): 0 | Plant response rating, Nutsedge (purple nutsedge; [6]): 0 | Nutsedge plant response rating (purple nutsedge; [8]): 0 | Plant response rating, S. Flatsedge (0 to 10 scale, 0 is no effect, 10 is complete control) (smallflower flatsedge; [9]): 0 | S. Flatsedge plant response rating (0 to 10 scale, 0 is no effect, 10 is complete control) (smallflower flatsedge; [10]): 0 | S. Flatsedge plant response rating (smallflower flatsedge; [11]): 0 | S. Flatsedge plant response rating (smallflower flatsedge; [12]): 0 | Plant response rating, Ducksalad (0 to 10 scale, 0 is no effect, 10 is complete control) (duck salad; [9]): 0 | Ducksalad plant response rating (0 to 10 scale, 0 is no effect, 10 is complete control) (duck salad; [10]): 0 | Ducksalad plant response rating (duck salad; [11]): 0 | Ducksalad plant response rating (duck salad; [12]): 0 | Plant response rating, Barnyardgrass (0 to 10 scale, 0 is no effect, 10 is complete control) (bamyardgrass; [9]): 0 | Barnyardgrass plant response rating (0 to 10 scale, 0 is no effect, 10 is complete control) (bamyardgrass; [10]): 0 | Barnyardgrass plant response rating (bamyardgrass; [11]): 0 | Barnyardgrass plant response rating (bamyardgrass; [12]): 5

— patent US6737383B1, “Herbicidal oxadiazolidines” (priority 1999, dated 2004)
